In patent publication US6683052B1, “Lipopeptides containing an interferon-γ fragment, and uses thereof in pharmaceutical compositions” (Institut National de la Sante et de la Recherche Medicale …, priority 1998, dated 2004):
Where no end group is shown, it is not given here. The star is where a group is joined. Palmitoyl = CCCCCCCCCCCCCCCC(=O)*

Key:
murine splenocytes = test: Induction of class II CMH molecules (IA^b) on murine splenocytes by lipopeptide fragments (FIG. 12A); type: cell-based, 129 Sv mice; conditions: for increase in class II CMH molecules (FIG. 12A): murine splenocytes, 24 hours, different concentrations
Method: (§1) Fresh splenocytes are obtained from 7-week-old female 129 Sv mice. The COLO 205 human colon carcinoma lines are obtained from the ATCC (American Type Culture Collection). The splenocytes and COLO 205 cells are maintained in RPMI 1640 (Gibco BRL, Courbevoie, France), supplemented with 10% FCS (Gibco BRL), sodium pyruvate (Sigma, St. Louis, USA) and incubated at 37° C. in 5% CO2.
(§2) The cells were stimulated for 24 hours with different concentrations of MuL, L-mIFNγ 113-132, L-mIFNγ 122-132 or MuSL. The murine splenocytes and COLO 205 cells were labelled for the expression of II MHC with 1 μg of anti-mouse IA^b FITC monoclonal antibody (mAb) (Pharmingen, San Diego, USA) and 10 μl of anti-HLA-DR clone TAL.1B5 mouse FITC mAb (Cymbus Biotechnology Ltd, Hants, UK), respectively. A negative control mouse FITC IgG1 (DAKO S. A., Trappes, France) was used as control isotype. The cells were incubated for 1 hour at 4° C. in PBS, 10% FCS and then washed, and the expression of II MHC was analysed by flow cytometry using a Coulter EPILS II cytometer (Coulter, Hialeah, Fla., USA) at a rate of 10,000 events per sample.
(§3) FIG. 12: Induction of class II CMH molecules by human or murine cells stimulated with lipopeptides derived from IFN-γ. The murine splenocytes (A) and the COLO 205 human cell line (B) were incubated for 24 hours with different concentrations of lipopeptides derived from IFN-γ. The cells were labelled with a monoclonal antibody directed against the class II CMH molecules, and analysed by flow cytometry. The ratio between the average fluorescence intensity of the cells treated with the lipopeptides and between the average fluorescence intensity of the untreated cells is indicated on the y-axis. The lipopeptide concentration is indicated in μM on the x-axis; MuL: solid circles; MuSL : hollow circles; L-mIFN 113-132: triangles; L-mIFN 122-132: X.

COLO 205 human cell line = test: Induction of HLA-DR on COLO 205 cells by lipopeptide fragments (FIG. 12B); type: cell-based; conditions: for increase in class II CMH molecules (FIG. 12B): COLO 205, 24 hours, different concentrations
Method: as §1, §2, §3

[1] = system: murine splenocytes and COLO 205 cells; test: Cytotoxicity at high lipopeptide concentrations; type: cell-based
P388D1 = test: Induction of class II CMH molecules on P388D1 cell line, flow cytometry; type: cell-based, murine; conditions: 50 μM, stimulated for 24 hours
Method: (§4) Principle: to check the induction of class II CMH molecules on cell lines (P388D1 and WEHI3: murine myelomonocytes) with the above-mentioned peptides.
(§5) Procedure. The cells are cultured the day before at a rate of 3×10^5 cells per well in 24-well culture plates (NUNC). The following day, the cells are stimulated with the various lipopeptide and peptide constructs at a final concentration of 50 μM in 1 ml of medium. After incubation for 24 hours at 37° C. in an atmosphere saturated with 5% CO2, the cells are recovered and incubated for 1 hour at 4° C. with 3 μg of a biotinylated mouse anti-I-Ad monoclonal antibody (Pharmingen, San Diego, USA). After revelation for 30 minutes with FITC streptavidin used at a dilution of 1:100 (Sigma, St. Louis, USA), the expression of class II molecules is determined by flow cytometry.

WEHI3 = test: Induction of class II CMH molecules on WEHI3 cell line, flow cytometry; type: cell-based, murine; conditions: 50 μM, stimulated for 24 hours
Method: as §4, §5

splenocytes = test: Expression of class II CMH molecules and Fc-γ receptors on splenocytes taken from an animal; type: cell-based, Balb/c mouse; conditions: 50 μM, 24 hours
Method: (§6) Principle: to evaluate the activity of the vectorized agonist on cells taken from an animal and treated in vitro (in order to assess the value of a subsequent in vivo study).
(§7) Procedure. The splenocytes and peritoneal cells taken from an animal (Balb/c mouse) are re-cultured at a rate of 2.5×10^6 splenocytes and […] peritoneal cells per well in 24-well plates (NUNC) stimulated with 50 μM of the different peptides in a final volume of 1 ml. After stimulation for 24 hours, the cells are labelled with the anti IA^d monoclonal antibody described in the preceding paragraph, according to the same protocol. To detect the Fc-γ R, the cells are labelled with 1 μg of a rat anti Fc-γ R monoclonal antibody (Pharmingen, San Diego, USA). Next, the cells are incubated for ½ hour with a rat anti IgG biotinylated polyclonal antibody. The revelation is then carried out with FITC streptavidin used at a dilution of 1:100 (Sigma, St. Louis, USA). The expression of Fc-γ R is determined by flow cytometry.

peritoneal cells = test: Expression of class II CMH molecules and Fc-γ receptors on peritoneal cells taken from an animal; type: cell-based, Balb/c mouse; conditions: 50 μM, 24 hours, flow cytometry
Method: as §6, §7

[2] = system: splenocytes taken from mice 129 (Wild type: WT); test: Involvement of the IFN-γ receptor: IA^d and Fc-γ R on splenocytes of wild type mice 129; type: cell-based; conditions: stimulation for 24 hours, flow cytometry
Method: as §7
(§8) Principle. to confirm that the biological activity observed was effectively associated with a stimulation of the IFN-γ receptor, we repeated the same experiments, in parallel on splenocytes taken from mice 129 (Wild type: WT) and on cells taken from mice 129 no longer expressing the alpha chain of the IFN-γ receptor (KO mice).
(§9) Procedure. The experimental protocol followed is identical to that described in paragraph 2 above.

[3] = system: cells taken from mice 129 no longer expressing the alpha chain of the IFN-γ receptor (KO mice); test: Involvement of the IFN-γ receptor: IA^d and Fc-γ R on cells of mice lacking the alpha chain of the IFN-γ receptor; type: cell-based; conditions: stimulation for 24 hours, flow cytometry
Method: as §7, §8, §9

[4] = system: human colon carcinoma cells (COLO 205); test: Induction of HLA-DR on COLO 205 cell line, flow cytometry; type: cell-based; conditions: COLO 205, 50 μM
Method: Principle: human colon carcinoma cells (COLO 205) are analysed for their ability to express HLA-DR after having been stimulated with the various peptide constructs.
Procedure. The cell line COLO 205 is cultured at a rate of 3×10^5 cells per well in a 24-well culture plate (NUNC). The following day, the cells are stimulated with the various peptide constructs at a final concentration of 50 μM in 1 ml of medium, and are incubated at 37° C. for 24 hours. The cells are then recovered and labelled using 3 μg of an anti HLA-DR mouse biotinylated monoclonal antibody (clone L243). After revelation with FITC streptavidin, the cells are analysed by flow cytometry.

[5] = system: human peripheral blood mononuclear cells (PBMC); test: Induction of HLA-DR, ICAM-1 and VCAM-1 on human PBMC; type: cell-based; conditions: 24 hours
Method: Principle. In the light of the results obtained on the human cell line and on human primary cultures, the immunostimulatory potential of MuL was evaluated on human cells taken directly from a healthy donor.
Procedure. PBMCs are isolated from a bag of blood and the cells are then cultured and stimulated for 24 hours with 25 and 50 μM of MuSL or MuL in a final volume of 1 ml. The cells are then recovered and labelled for the expression of VCAM-1, ICAM-1 and HLA-DR according to the protocol already described above. Finally, the cells are analysed by flow cytometry.

[6] = system: L929 cells infected with the VSV virus; type: cell-based, mouse; conditions: 1 to 10 μM
[7] = system: splenocytes stimulated with anti-CD40 and IL-4; test: Inhibition of IL-4 activity: anti-CD40 + IL-4 proliferation of splenocytes, tritiated thymidine; type: cell-based, Balb/c mice; conditions: 10 μM
Excerpt: It is commonly described that the immunomodulatory potential of IFN-γ lies in its ability to polarize the establishment of a type-1 T helper (Th1) response, while at the same time inhibiting the development of a type-2 T helper (Th2) response. This inhibitory action on the polarization of the Th2 response takes place mainly via inhibition of the activity of IL-4. […] The stimulation of splenocytes with an anti-CD40 antibody (antibody directed against a surface cell label: CD40) and IL-4 induces a proliferation of the murine B cells, following a synergistic action between the CD40 and IL-4 stimulation (Hasbold et al. 1994).
The splenocytes taken from Balb/c mice are cultured and stimulated with anti-CD40 (10 μg/ml) and IL-4 (10 U/ml). 10 μM of the synthetic agonist of IFN-γ (MuL) or of its control lipopeptide (MuSL) are added. After stimulation for 24 hours, tritiated thymidine is added at a rate of 0.5 μCurie per well. After incubation for 18 hours, the cells are filtered off and the incorporation of tritiated thymidine is evaluated. This incorporation is proportional to the cell proliferation.

L-mIFN-γ 113-132: fragment 113-132 of murine IFNγ, carboxamide end, N-terminal Ac-K(Pam) group (Ac-K(Palmitoyl)IRVVHQLLPESSLRKRKRSR-NH2; SMILES CCCCCCCCCCCCCCCC(=O)NCCCC[C@H](NC(C)=O)C(=O)N[C@H](C(=O)N[C@@H](CCCNC(=N)N)C(=O)N[C@H](C(=O)N[C@H](C(=O)N[C@@H](Cc1c[nH]cn1)C(=O)N[C@@H](CCC(N)=O)C(=O)N[C@@H](CC(C)C)C(=O)N[C@@H](CC(C)C)C(=O)N1CCC[C@H]1C(=O)N[C@@H](CCC(=O)O)C(=O)N[C@@H](CO)C(=O)N[C@@H](CO)C(=O)N[C@@H](CC(C)C)C(=O)N[C@@H](CCCNC(=N)N)C(=O)N[C@@H](CCCCN)C(=O)N[C@@H](CCCNC(=N)N)C(=O)N[C@@H](CCCCN)C(=O)N[C@@H](CCCNC(=N)N)C(=O)N[C@@H](CO)C(=O)N[C@@H](CCCNC(=N)N)C(N)=O)C(C)C)C(C)C)[C@@H](C)CC)
increase in the expression of class II CMH molecules (murine splenocytes; 50 μM, splenocytes freshly obtained from mice): 13 fold
factor of increase of the expression of IA^b (murine splenocytes; 100 μM (280 μg/ml), murine cells): 18
increase in class II CMH molecules (FIG. 12A) (murine splenocytes): marked dose-dependent increase
increase in the expression of HLA-DR (COLO 205 human cell line; 50 μM, human cells): 10 fold
increase in the expression of HLA-DR (COLO 205 human cell line; 75 μM (210 μg/ml), human cell lines): 15 fold
increase in class II CMH molecules (FIG. 12B) (COLO 205 human cell line): marked dose-dependent increase
cytotoxicity [1]: not cytotoxic

MuSL: control "scrambled" lipopeptide: MuL in which the order of the amino acids has been rearranged, Ac-K(Pam) (Ac-K(Palmitoyl)PSRENQNAVKIQKLSVVLRREQKHRVERLAFRNQSLPF)
percentage of class II CMH detected by flow cytometry, P388D1 (P388D1): 13%
percentage of class II CMH detected by flow cytometry, WEH1 (WEHI3): 15%
splenocytes II CMH (%) (splenocytes; flow cytometry): 14%
splenocytes RFc (%) (splenocytes; flow cytometry): 15%
increase of IA^d and of Fc-γ R on the treated cells (splenocytes; splenocytes and peritoneal cells): no notable activity
peritoneal cells II CMH (%) (peritoneal cells): 13%
peritoneal cells RFc (%) (peritoneal cells): 20%
WT mice II CMH (%) [2]: 4%
WT mice RFc (%) [2]: 2%
KO mice II CMR (%) [3]: 4%
KO mice RFc (%) [3]: 3%
induction of the expression of HLA-DR [4]: no activity
% HLA-DR ([4]; 24 hours, flow cytometry): 8.9%
percentage of ICAM-1 detected on PBMCs ([5]; 25 μM): 29.4%
percentage of VCAM-1 detected on PBMCs ([5]; 25 μM): 39.7%
percentage of HLA-DR detected on PBMCs ([5]; 50 μM): 58.3%
percentage of ICAM-1 detected on PBMCs ([5]; 50 μM): 32%
percentage of VCAM-1 detected on PBMCs ([5]; 50 μM): 86.9%
effect on viral lysis (FIG. 2) [6]: no effect on viral lysis
effect on the synergistic anti-CD40 + IL-4 proliferation (FIG. 4) [7]: no effect
increase in class II CMH molecules (FIG. 12A) (murine splenocytes): neither L-mIFN-γ 122-132 nor MuSL are active
increase in class II CMH molecules (FIG. 12B) (COLO 205 human cell line): neither L-mIFN-γ 122-132 nor MuSL are active
